# Reference: US20070148712A1, “Breast cancer and prostate cancer assessment” (Iowa State University Research Foundation, Inc., priority 2005, published 2007)
# How the values were obtained:
# 2E9 MAb [1] = experiment: Competitive ELISA for 4-OHE1-2-NAcCys: inhibition of 2E9 MAb binding to immobilized antigen; parameters: species or system mouse; settings: for IC50: wells coated with OA-4-OHE1(E2)-2-NAcCys-16a,β-MCC, regression analysis, read-out: I50 (quantity producing 50% inhibition of MAb binding in the ELISA)
# Method: FIG. 5 is a diagram depicting inhibition profiles obtained for 4-OHE1-2-NAcCys (curve 1); NAcCys (curve 2), 4-OHE1(E2) (curve 3), and 4-OHE1-1-N3Ade (curve 4) using the 2E9 MAb in the competitive ELISA assay. Competitor-mediated reduction of MAb binding was expressed as % inhibition vs. untreated MAb and then plotted as a function of log quantity of competitor per well of the ELISA plate.
# Wells were coated with OA-40HE1(E2)-2-NAcCys-16a,β-MCC, 500 ng/mL, 50 μL/well overnight, and blocked with 1% non-fat dried milk, 0.01% Triton-X100 in PBS for 2 h at 37° C. Competition curves were generated as described below. MAb and competitor molecules 4-OHE1(E2)-2-NAcCys (1), NAcCys (2), 4-OHE1(E2) (3), and 4-OHE1(E2)-1-N3Ade (4) were added to the wells at the same time and allowed to react with immobilized antigen for one hour before secondary antibody was added. The plates were washed with PBS with Triton-X100 (0.01%). Secondary antibody labeled with horseradish peroxidase (HRP) was used according to manufacturer's (BRL, Inc.) recommendations and incubated at 37° C. for 1 h. Plates were washed again, 2,2′-azino-bis(3-ethylbenzthiazoline-6-sulfonic acid) (ABTS) was added, and the plates were read at 405 nm on a BioRad-EL800 plate reader. The specificity of the 2E9 MAb raised against 4-OHE1(E2)-2-NAcCys was confirmed, and cross-reactivity to a number of related compounds was established.
# The results are shown in FIG. 5, where the competitor-mediated reduction of MAb binding is expressed as % inhibition versus untreated MAb and plotted as a function of the concentration of competitor in the wells of the ELISA plate. Inhibition curves were developed for several analytes of interest; the I50's (quantity producing 50% inhibition of MAb binding in the ELISA) of these analytes were determined by regression analysis. […] For example, the I50 of 4-OHE-1-N3Ade (I50=1.5·10^−5M) was about 2700 times higher than the I50 of the 4-OHE1-2-NAcCys (I50=5.6·10^−9M).
# 2E9 MAb [2] = experiment: Indirect competitive ELISA measuring equilibrium association constant and association/dissociation rates of MAb-hapten complexes; assay type: binding, mouse; settings: for KA times smaller than the KA obtained for 4-OHE1-2-NAcCys: comparator 4-OHE1-2-NAcCys; for Association constant, KA / Association rate, kon / Dissociation rate, koff: in the presence of 2E9 MAb, indirect competitive ELISA; for Association constant, KA: equilibrium; for KA times higher than KA measured for the 4-OHE2-1-N3Ade adduct: comparator 4-OHE2-1-N3Ade; for KA higher by a factor than that obtained for NAcCys: comparator NAcCys; for 1/koff: dissociation time
# Method: The equilibrium constant and the kinetic off- and on-rates for the analyte and the reporter molecule of interest must be known. The equilibrium association constants (KA) and association (kon)/dissociation (koff) rates for 4-OHE2-2-NAcCys and 4-OHE2-2-NAcCys-SAMSA conjugates are given in Table I, which also provides information on other closely related analytes, such as 4-OHE2, NAcCys, and 4-OHE2-1-N3Ade adduct. All values listed in Table I were determined using an indirect competitive ELISA. The value of KA for 4-OHE2-2-NAcCys-SAMSA was confirmed by an equilibrium dialysis method.
# An ELISA was used to measure the association/dissociation rate constants of MAb-hapten (i.e., MAb-4-OHE1-2-NAcCys) and/or association/dissociation rate constants of related analytes. The MAb and suitable hapten(s) were mixed in solution to initiate the equilibrium reaction. At different time intervals, the amount of the free MAb in the reaction mixture was determined by an indirect ELISA. The association rate constants for 4-OHE1-2-NAcCys, 4-OHE1, NAcCys, and 4-OHE1-1-N3Ade were estimated by nonlinear regression against an equation introduced from the derivation of the mass balance of MAb-antigen/related analyte interaction (Zhuang et al., J Biosci. Bioeng. 92, 330-336 (2001); Foote et al., Proc. Natl. Acad. Sci. USA 92, 1254-1256 (1995); Goldbaum et al., J Immunol. 162, 6040-6045 (1999); Northrup et al., Proc. Natl. Acad. Sci. USA 89, 3338-3342 (1992)).
# To determine the bound fraction of the antibody by ELISA, 3 rows and 8 columns of the microtiter plate were incubated with sufficient concentration of antigen to saturate the wells. After washing the plate with PBS 3 times, 4 rows of the plate including 3 rows coated with the antigen were blocked with 1% non-fat dried milk, 0.01% Triton-X100 in PBS for 3 hrs. Then the plate was washed with PBS with Triton-X100 (0.01%) 3 times. Equal volumes (160 μL) of the antigen (or related analyte) and PBS were mixed, and the mixture was put into the first well of the row that was blocked but not coated with the antigen (non-coated row).
# The average absorbance of this column (Ab) measured in the last step of the ELISA corresponds to the blank. Equal volumes (160 μL) of the antibody solution and PBS were mixed, and the mixture was put into the last (8th) well of the non-coated row. The average absorbance of this column (Ao) corresponds to the total concentration of the antibody. Equal volumes of the antibody solution and antigen (or related analyte) solution were mixed quickly, and the mixture was immediately put into the second well of the non-coated row. At appropriate time intervals (after 10, 20, 23, 26 and 28 min), a new mixture of the antibody and hapten (or related analyte) solution were mixed quickly, immediately put into the wells of the non-coated row from the […]. The average absorbance of these columns (At) corresponds to the concentration of the free antibody at t=30, 20, 10, 7, 4 and 2 min for the […], respectively. Two min after the 7th well was filled with the mixture, using an eight-channel Pipetman, the mixtures on the row were quickly dispensed into the 3 rows that were coated with the antigen (or related analyte, 50 μL each). After 1 min the mixture was discarded and the plate was washed with PBS with Triton-X100 (0.01%) 3 times. The secondary antibody solution (HRP-conjugated) was added to the plate (50 μL), and the plate was incubated at 37° C. for 1 h. After washing with PBS and Triton-X100 (0.01%) 3 times, the substrate was added to the plate (50 μL). After incubation for 10 min at room temperature, the absorbance at 405 nm was measured.
# Association constants KA for 4-OHE1 and NAcCys were also determined and are 2.5·10^5 and 2.1·10^6 M^−1, respectively. […] When the time required for the equilibrium reaction between the antigen and the antibody is shorter, one can detect or quantify the hapten faster. […]
# [3] = system: MAb against 4-OHE2-1-N3Ade; experiment: Association constant of the MAb developed against 4-OHE2-1-N3Ade; assay type: binding
Compound,KA times smaller than the KA obtained for 4-OHE1-2-NAcCys (2E9 MAb [2]; 2E9 MAb),1/koff (2E9 MAb [2]; 2E9 MAb) [s],"Association rate, kon (2E9 MAb [2]) [M⁻¹ s⁻¹]","Dissociation rate, koff (2E9 MAb [2]) [s⁻¹]","Association constant, KA (2E9 MAb [2]) [M⁻¹]",other results
CC(=O)NC(CSc1cc2c(c(O)c1O)CCC1C2CCC2(C)C(=O)CCC12)C(=O)O (stereo not drawn) [4-OHE1-2-NAcCys],,,,,,IC50 (2E9 MAb [1]): 0.0056 µM
C[C@]12CC[C@@H]3c4c(-n5cnc(=N)c6[nH]cnc65)cc(O)c(O)c4CC[C@H]3[C@@H]1CCC2=O [4-OHE1-1-N3Ade],2700,,,,,"I50 times higher than the I50 of 4-OHE1-2-NAcCys (2E9 MAb [1]; comparator 4-OHE1-2-NAcCys): about 2700; IC50 (2E9 MAb [1]): 15 µM; Association constant, KA (2E9 MAb [2]; listed as 4-OHE1-N3Ade): 67000 M⁻¹"
"CC(=O)N[C@@H](CSc1cc2c(c(O)c1O)CC[C@@H]1[C@@H]2CC[C@]2(C)[C@@H](O)CC[C@@H]12)C(=O)O [4-OHE2-NAcCys, 4-OHE2-2-NAcCys]",,391,460000,0.0026,1.8e+08,"dissociation time 1/koff (2E9 MAb [2]; 2E9 MAb): ~6.5 min; KA times higher than KA measured for the 4-OHE2-1-N3Ade adduct (2E9 MAb [2]; 2E9 MAb): about 2,700; KA higher by a factor than that obtained for NAcCys (2E9 MAb [2]; 2E9 MAb): 100; Association constant, KA (2E9 MAb [2]; listed as 4-OHE2-2-NAcCys): 1.8e+08 M⁻¹"
C[C@]12CC[C@@H]3c4ccc(O)c(O)c4CC[C@H]3[C@@H]1CC[C@@H]2O [4-OHE2],,17,15000,0.062,250000,
C[C@]12CC[C@@H]3c4c(-n5cnc(=N)c6[nH]cnc65)cc(O)c(O)c4CC[C@H]3[C@@H]1CC[C@@H]2O [4-OHE2-1-N3Ade],,10,6500,0.097,67000,KA [3]: 2e+08 M⁻¹
"CC(=O)N[C@@H](CS)C(=O)O [NAcCys, N-acetylcysteine]",~86,27,77000,0.037,2.1e+06,
4-OHE1(E2)-2-NAcCys,,,,,1.8e+08,"KA times higher than KA measured for the 4-OHE2-1-N3Ade adduct (2E9 MAb [2]; 2E9 MAb): about 2,700; KA higher by a factor than that obtained for NAcCys (2E9 MAb [2]; 2E9 MAb): 100"
4-OHE2-2-NAcCys-SAMSA [4-OHE2-NAcCys-SAMSA],,185,270000,0.0054,5e+07,
C[C@]12CC[C@@H]3c4ccc(O)c(O)c4CC[C@H]3[C@@H]1CCC2=O [4-OHE1],about 720,,,,250000,
